From ChEMBL document CHEMBL1909046, “DrugMatrix in vitro pharmacology data” come the findings set out here.

Sequence of Insulin receptor (P15127 27-759 limits assumed): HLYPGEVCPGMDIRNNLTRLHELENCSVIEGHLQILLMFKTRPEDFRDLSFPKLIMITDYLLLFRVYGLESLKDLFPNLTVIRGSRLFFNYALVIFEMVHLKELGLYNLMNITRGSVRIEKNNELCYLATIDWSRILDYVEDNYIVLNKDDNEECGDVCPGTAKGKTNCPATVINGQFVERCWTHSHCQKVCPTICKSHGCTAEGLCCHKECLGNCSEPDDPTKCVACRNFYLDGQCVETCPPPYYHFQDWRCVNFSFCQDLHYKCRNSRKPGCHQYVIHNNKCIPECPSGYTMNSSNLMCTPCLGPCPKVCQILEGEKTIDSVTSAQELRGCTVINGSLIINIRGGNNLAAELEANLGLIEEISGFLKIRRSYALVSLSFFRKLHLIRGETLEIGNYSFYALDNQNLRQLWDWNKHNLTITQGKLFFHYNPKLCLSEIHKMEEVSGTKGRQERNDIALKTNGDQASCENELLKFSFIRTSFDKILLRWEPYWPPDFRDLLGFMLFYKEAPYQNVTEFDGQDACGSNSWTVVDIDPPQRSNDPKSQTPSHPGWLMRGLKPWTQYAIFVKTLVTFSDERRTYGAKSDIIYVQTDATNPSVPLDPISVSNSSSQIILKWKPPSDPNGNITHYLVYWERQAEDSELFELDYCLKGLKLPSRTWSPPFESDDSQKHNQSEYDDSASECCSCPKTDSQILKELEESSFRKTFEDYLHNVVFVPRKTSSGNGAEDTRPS
Sequence of Insulin receptor (P15127 764-1383 limits assumed): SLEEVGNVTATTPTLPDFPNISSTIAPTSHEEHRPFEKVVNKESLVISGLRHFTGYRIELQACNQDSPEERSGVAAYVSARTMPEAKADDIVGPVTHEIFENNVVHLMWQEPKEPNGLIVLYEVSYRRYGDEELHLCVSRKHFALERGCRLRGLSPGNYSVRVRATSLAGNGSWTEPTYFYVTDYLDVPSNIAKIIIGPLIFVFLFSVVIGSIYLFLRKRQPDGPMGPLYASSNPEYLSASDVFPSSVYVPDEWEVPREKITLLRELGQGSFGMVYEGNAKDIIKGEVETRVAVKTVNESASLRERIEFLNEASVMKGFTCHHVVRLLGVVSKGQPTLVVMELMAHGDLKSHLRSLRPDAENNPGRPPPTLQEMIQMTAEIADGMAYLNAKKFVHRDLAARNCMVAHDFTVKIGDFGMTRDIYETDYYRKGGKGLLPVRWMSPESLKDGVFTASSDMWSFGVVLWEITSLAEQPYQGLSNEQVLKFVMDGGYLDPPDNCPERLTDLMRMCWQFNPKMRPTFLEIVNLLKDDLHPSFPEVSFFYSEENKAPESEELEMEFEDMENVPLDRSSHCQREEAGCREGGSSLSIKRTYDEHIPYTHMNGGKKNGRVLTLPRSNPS

The first test deals with T1, Neuropeptide Y receptor type 1 (Homo sapiens, UniProt P25929).
T1 sequence (P25929 whole entry): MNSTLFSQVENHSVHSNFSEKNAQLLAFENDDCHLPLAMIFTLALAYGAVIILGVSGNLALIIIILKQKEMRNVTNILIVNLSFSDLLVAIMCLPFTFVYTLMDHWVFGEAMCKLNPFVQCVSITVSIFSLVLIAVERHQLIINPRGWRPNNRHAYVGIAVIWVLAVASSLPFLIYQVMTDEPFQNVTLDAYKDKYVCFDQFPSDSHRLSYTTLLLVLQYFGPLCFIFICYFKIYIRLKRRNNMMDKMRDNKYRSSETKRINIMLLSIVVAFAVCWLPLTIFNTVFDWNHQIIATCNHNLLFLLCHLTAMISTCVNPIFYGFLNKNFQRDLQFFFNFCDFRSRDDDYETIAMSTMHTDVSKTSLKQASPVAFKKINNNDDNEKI
Test: not given
Format: cell membranes, Membrane. The note with it: sk-n-mc.
For orientation: IC50 means the concentration that inhibits the measured activity by half. As for `Cc1c(-c2ccccc2)oc2c(C(=O)OCCN3CCCCC3)cccc2c1=O` [FLAVOXATE], the half-maximal inhibitory concentration (IC50) result is on record as “Not Active”.
The same measure, in the same setting: next, `O=c1[nH]cc(F)c(=O)[nH]1` [FLUOROURACIL]: “Not Active”; `COc1ccc2cc(CC(=O)O)ccc2c1`: “Not Active”.

In another test the target is T2, C-C chemokine receptor type 4 (Homo sapiens, UniProt P51679). Note: in other assays of this panel Not Active means under 50% inhibition at 10 µM.
T2 sequence (P51679 whole entry): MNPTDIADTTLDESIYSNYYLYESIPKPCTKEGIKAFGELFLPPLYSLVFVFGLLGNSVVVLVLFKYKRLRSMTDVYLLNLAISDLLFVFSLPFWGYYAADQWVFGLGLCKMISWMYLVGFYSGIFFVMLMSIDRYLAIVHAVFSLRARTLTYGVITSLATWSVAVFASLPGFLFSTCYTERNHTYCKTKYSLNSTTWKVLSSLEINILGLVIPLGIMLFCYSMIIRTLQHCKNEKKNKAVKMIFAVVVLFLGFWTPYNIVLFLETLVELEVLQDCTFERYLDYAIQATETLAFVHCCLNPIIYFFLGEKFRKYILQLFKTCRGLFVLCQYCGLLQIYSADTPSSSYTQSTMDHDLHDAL
Test: not given
In kind it is cell membranes, Membrane. The following applies: chem-1.
On to `Cc1c(-c2ccccc2)oc2c(C(=O)OCCN3CCCCC3)cccc2c1=O` [FLAVOXATE], for which the IC50 result is “Not Active”.
Same read-out and setting: next, `O=c1[nH]cc(F)c(=O)[nH]1` [FLUOROURACIL]: “Not Active”; `COc1ccc2cc(CC(=O)O)ccc2c1`: “Not Active”.

The target of a further test is cGMP-specific 3',5'-cyclic phosphodiesterase (Homo sapiens, UniProt O76074). As to the kind of experiment: DRUGMATRIX: Phosphodiesterase PDE5 enzyme inhibition (substrate: [3H]cGMP + cGMP). Format: tissue-based, Platelet. The following applies: platelet; Not Active = under 50% inhibition at 10 µM.
Consider `Cc1c(-c2ccccc2)oc2c(C(=O)OCCN3CCCCC3)cccc2c1=O` [FLAVOXATE], for which the 50% inhibitory concentration (IC50) entry is on record as “Not Active”.
For the compound `O=c1[nH]cc(F)c(=O)[nH]1` [FLUOROURACIL], the concentration for half-maximal inhibition (IC50) result is recorded as “Not Active”.
On the same count and under the same terms, to `COc1ccc2cc(CC(=O)O)ccc2c1` belongs “Not Active”.

The target of a further test is T3, Neutrophil elastase (Homo sapiens, UniProt P08246).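 Note: inhibition of neutrophil elastase enzyme activity, measured with a p-nitroanilide-linked peptide substrate; in other assays of this panel Not Active means under 50% inhibition at 10 µM.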
T3 sequence (P08246 whole entry): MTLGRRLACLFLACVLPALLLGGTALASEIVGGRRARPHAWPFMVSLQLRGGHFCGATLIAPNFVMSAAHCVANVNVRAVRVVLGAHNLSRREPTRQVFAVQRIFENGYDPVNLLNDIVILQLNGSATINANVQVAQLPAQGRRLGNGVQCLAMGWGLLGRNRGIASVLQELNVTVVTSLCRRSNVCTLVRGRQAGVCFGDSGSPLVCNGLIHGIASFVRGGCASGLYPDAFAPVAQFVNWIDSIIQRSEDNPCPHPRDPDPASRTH
Test: not given
In kind it is tissue-based.
Settings: not given
`Cc1c(-c2ccccc2)oc2c(C(=O)OCCN3CCCCC3)cccc2c1=O` [FLAVOXATE]: the IC50 entry is reported as “Not Active”.
The same measure, in the same setting: to `O=c1[nH]cc(F)c(=O)[nH]1` [FLUOROURACIL] belongs “Not Active”.
As to `COc1ccc2cc(CC(=O)O)ccc2c1`, the IC50 entry is reported as “Not Active”.

System in the next test: not listed separately
As to the kind of experiment: DRUGMATRIX: ATPase, Na+/K+ enzyme inhibition (substrate: ATP). In kind it is tissue-based, Sus scrofa, Heart. The note with it: Not Active = under 50% inhibition at 10 µM.
Regarding `Cc1c(-c2ccccc2)oc2c(C(=O)OCCN3CCCCC3)cccc2c1=O` [FLAVOXATE], the half-inhibitory concentration (IC50) entry is “Not Active” and the Ki result is “Not Active”.
On to `O=c1[nH]cc(F)c(=O)[nH]1` [FLUOROURACIL], for which the IC50 result was “Not Active” and the Ki entry is “Not Active”.
With `COc1ccc2cc(CC(=O)O)ccc2c1`, the concentration for half-maximal inhibition (IC50) result is listed as “Not Active” and the Ki result is on record as “Not Active”.

The target of a further test is T4, Leukotriene C4 synthase (Cavia porcellus, UniProt A6XA80).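 Note: enzyme inhibition assay of leukotriene C4 synthase, using LTA4 as the substrate; in other assays of this panel Not Active means under 50% inhibition at 10 µM.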
T4 sequence (A6XA80 whole entry): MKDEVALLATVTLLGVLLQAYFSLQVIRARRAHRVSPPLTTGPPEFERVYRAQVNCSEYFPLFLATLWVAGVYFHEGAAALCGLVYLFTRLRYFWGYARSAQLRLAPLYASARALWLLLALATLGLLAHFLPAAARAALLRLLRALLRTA
The test is described as follows: biochemical. Format: tissue-based, Lung.
Settings: not given
Take `Cc1c(-c2ccccc2)oc2c(C(=O)OCCN3CCCCC3)cccc2c1=O` [FLAVOXATE]: the IC50 entry is “Not Active”.
In the case of `O=c1[nH]cc(F)c(=O)[nH]1` [FLUOROURACIL], the IC50 result is on record as “Not Active”.

Still in this test, the particulars now being: read-out: IC50.
As for `COc1ccc2cc(CC(=O)O)ccc2c1`, the IC50 was determined as 49.7 µM.

System in a further test: not listed separately
The test is described as follows: DRUGMATRIX: Phorbol Ester radioligand binding (ligand: [3H] PDBu). Format: cell membranes, Mus musculus, ICR, Brain, Membrane. The note with it: Not Active = under 50% inhibition at 10 µM.
Regarding `Cc1c(-c2ccccc2)oc2c(C(=O)OCCN3CCCCC3)cccc2c1=O` [FLAVOXATE], the half-inhibitory concentration (IC50) entry is “Not Active” and the Ki entry is reported as “Not Active”.
As for `O=c1[nH]cc(F)c(=O)[nH]1` [FLUOROURACIL], the concentration for half-maximal inhibition (IC50) entry was “Not Active” and the Ki result is listed as “Not Active”.
In the case of `COc1ccc2cc(CC(=O)O)ccc2c1`, the concentration for half-maximal inhibition (IC50) entry is recorded as “Not Active” and the Ki result is “Not Active”.

System in a further test: not listed separately
As to the kind of experiment: DRUGMATRIX: Glutamate, Kainate radioligand binding (ligand: [3H] Kainic acid). The note with it: Not Active = under 50% inhibition at 10 µM. Format: cell membranes, Rattus norvegicus, Wistar, Brain, Membrane.
As to `Cc1c(-c2ccccc2)oc2c(C(=O)OCCN3CCCCC3)cccc2c1=O` [FLAVOXATE], the 50% inhibitory concentration (IC50) result is recorded as “Not Active” and the Ki entry is “Not Active”.
Turning to `O=c1[nH]cc(F)c(=O)[nH]1` [FLUOROURACIL], the IC50 result is on record as “Not Active” and the Ki entry was “Not Active”.
In the case of `COc1ccc2cc(CC(=O)O)ccc2c1`, the IC50 result is reported as “Not Active” and the Ki entry is recorded as “Not Active”.

The target in the next test is Estrogen receptor beta (Homo sapiens, UniProt Q92731). Note: in other assays of this panel Not Active means under 50% inhibition at 10 µM.
Sequence of Estrogen receptor beta (Q92731 whole entry): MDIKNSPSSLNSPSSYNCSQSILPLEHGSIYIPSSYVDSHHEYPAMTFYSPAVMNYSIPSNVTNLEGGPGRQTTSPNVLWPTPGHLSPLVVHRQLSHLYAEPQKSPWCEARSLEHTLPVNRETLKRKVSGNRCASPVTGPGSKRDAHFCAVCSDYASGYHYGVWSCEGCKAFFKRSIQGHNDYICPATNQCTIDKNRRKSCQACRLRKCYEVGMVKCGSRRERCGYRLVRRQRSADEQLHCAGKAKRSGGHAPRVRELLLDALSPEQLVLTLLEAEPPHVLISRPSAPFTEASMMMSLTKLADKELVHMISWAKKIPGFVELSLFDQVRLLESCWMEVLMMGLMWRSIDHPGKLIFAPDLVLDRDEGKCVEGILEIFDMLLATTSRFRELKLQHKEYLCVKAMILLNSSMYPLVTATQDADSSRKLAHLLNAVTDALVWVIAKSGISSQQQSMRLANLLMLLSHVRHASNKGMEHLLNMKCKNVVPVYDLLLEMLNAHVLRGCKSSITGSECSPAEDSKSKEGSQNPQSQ
Test: not given
The following applies: sf9.
For `Cc1c(-c2ccccc2)oc2c(C(=O)OCCN3CCCCC3)cccc2c1=O` [FLAVOXATE], the IC50 result was “Not Active”.
Consider `O=c1[nH]cc(F)c(=O)[nH]1` [FLUOROURACIL], for which the IC50 result is “Not Active”.
Consider `COc1ccc2cc(CC(=O)O)ccc2c1`, for which the 50% inhibitory concentration (IC50) result was “Not Active”.

System in another test: not listed separately
As to the kind of experiment: DRUGMATRIX: Glutamate, AMPA radioligand binding (ligand: [3H] AMPA). In kind it is cell membranes, Rattus norvegicus, Wistar, Cerebral cortex, Membrane. The note with it: Not Active = under 50% inhibition at 10 µM.
In the case of `Cc1c(-c2ccccc2)oc2c(C(=O)OCCN3CCCCC3)cccc2c1=O` [FLAVOXATE], the 50% inhibitory concentration (IC50) result is recorded as “Not Active” and the Ki entry is listed as “Not Active”.
In the case of `O=c1[nH]cc(F)c(=O)[nH]1` [FLUOROURACIL], the IC50 entry was “Not Active” and the Ki entry was “Not Active”.
Regarding `COc1ccc2cc(CC(=O)O)ccc2c1`, the IC50 entry is given as “Not Active” and the Ki result is listed as “Not Active”.

For the next test, the target named is C-C chemokine receptor type 2 (Homo sapiens, UniProt P41597). Note: in other assays of this panel Not Active means under 50% inhibition at 10 µM.
Sequence of C-C chemokine receptor type 2 (P41597 whole entry): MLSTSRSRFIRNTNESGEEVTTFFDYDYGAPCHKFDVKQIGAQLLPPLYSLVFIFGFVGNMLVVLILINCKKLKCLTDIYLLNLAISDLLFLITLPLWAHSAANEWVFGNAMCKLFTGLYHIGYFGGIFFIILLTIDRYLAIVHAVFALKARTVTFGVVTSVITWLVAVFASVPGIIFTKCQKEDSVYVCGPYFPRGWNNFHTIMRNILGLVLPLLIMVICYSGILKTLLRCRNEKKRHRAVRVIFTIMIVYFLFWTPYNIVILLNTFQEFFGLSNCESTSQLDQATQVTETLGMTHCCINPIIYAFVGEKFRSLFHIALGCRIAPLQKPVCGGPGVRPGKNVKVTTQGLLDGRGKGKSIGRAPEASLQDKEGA
Test: not given
In kind it is cell membranes, CHO-K1, Membrane. The note with it: cho-k1.
For the compound `Cc1c(-c2ccccc2)oc2c(C(=O)OCCN3CCCCC3)cccc2c1=O` [FLAVOXATE], the IC50 entry was “Not Active”.
On the same count and under the same terms, next, `O=c1[nH]cc(F)c(=O)[nH]1` [FLUOROURACIL]: “Not Active”; `COc1ccc2cc(CC(=O)O)ccc2c1`: “Not Active”.

The next test addresses T5, Nitric oxide synthase, inducible (Mus musculus, UniProt P29477).
T5 sequence (P29477 whole entry): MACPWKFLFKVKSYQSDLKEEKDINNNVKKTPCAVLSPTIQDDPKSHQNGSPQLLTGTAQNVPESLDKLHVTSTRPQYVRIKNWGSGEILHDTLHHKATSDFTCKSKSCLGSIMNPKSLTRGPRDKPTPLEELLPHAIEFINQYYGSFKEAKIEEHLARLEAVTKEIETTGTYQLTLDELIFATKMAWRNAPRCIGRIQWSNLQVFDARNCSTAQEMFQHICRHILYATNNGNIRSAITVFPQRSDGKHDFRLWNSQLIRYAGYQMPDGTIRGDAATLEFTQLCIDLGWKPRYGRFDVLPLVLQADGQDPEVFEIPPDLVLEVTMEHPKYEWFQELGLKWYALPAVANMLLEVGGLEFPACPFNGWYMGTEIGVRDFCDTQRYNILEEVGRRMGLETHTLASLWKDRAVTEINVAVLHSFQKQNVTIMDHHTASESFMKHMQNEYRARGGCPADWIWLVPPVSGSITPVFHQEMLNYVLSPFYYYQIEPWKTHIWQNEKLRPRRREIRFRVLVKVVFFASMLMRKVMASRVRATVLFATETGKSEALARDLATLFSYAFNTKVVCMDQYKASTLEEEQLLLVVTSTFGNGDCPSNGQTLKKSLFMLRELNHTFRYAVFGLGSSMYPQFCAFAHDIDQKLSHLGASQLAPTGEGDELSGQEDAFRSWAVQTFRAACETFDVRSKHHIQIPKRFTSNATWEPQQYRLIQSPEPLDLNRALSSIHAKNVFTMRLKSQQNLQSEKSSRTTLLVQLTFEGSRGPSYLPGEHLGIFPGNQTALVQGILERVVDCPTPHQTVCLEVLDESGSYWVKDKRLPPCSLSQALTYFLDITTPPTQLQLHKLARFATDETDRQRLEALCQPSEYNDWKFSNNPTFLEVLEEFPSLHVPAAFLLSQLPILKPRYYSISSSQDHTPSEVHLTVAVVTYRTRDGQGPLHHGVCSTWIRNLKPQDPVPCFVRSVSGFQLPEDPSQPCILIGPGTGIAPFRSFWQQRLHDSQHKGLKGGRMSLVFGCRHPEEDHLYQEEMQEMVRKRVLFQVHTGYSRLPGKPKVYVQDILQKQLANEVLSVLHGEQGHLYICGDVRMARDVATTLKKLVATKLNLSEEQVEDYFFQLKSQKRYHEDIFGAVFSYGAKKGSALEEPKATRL
Test: not given
Further details: species or system Escherichia coli.
Settings: not given
As for `Cc1c(-c2ccccc2)oc2c(C(=O)OCCN3CCCCC3)cccc2c1=O` [FLAVOXATE], the half-maximal inhibitory concentration (IC50) result is recorded as “Not Active”.
`O=c1[nH]cc(F)c(=O)[nH]1` [FLUOROURACIL]: the half-inhibitory concentration (IC50) result is “Not Active”.
`COc1ccc2cc(CC(=O)O)ccc2c1`: the IC50 result is “Not Active”.

Another test concerns the target Insulin receptor (Rattus norvegicus, UniProt P15127). Note: in other assays of this panel Not Active means under 50% inhibition at 10 µM.
Test: not given
Format: cell membranes, Wistar, Liver, Membrane.
Settings: not given
Turning to `Cc1c(-c2ccccc2)oc2c(C(=O)OCCN3CCCCC3)cccc2c1=O` [FLAVOXATE], the IC50 result is recorded as “Not Active”.
As for `O=c1[nH]cc(F)c(=O)[nH]1` [FLUOROURACIL], the concentration for half-maximal inhibition (IC50) entry is reported as “Not Active”.
Turning to `COc1ccc2cc(CC(=O)O)ccc2c1`, the IC50 result is “Not Active”.
